# Laboratory results: US9999616B2 (ZENITH EPIGENETICS LTD., priority 2013, dated 2018)
# How the values were obtained:
# Human AML MV-4-11 cells = assay: Inhibition of cell proliferation in MV4-11 cells (CellTiter Aqueous One); type: cell-based; details: for IC50: MV4-11, 72 h; for Cell Proliferation activity: 72 h
# Protocol: MV4-11 cells (CRL-9591) were plated at a density of 5×10^4 cells per well in 96 well flat bottom plates and treated with increasing concentrations of test compound or DMSO (0.1%) in IMDM media containing 10% FBS and penicillin/streptomycin. Triplicate wells were used for each concentration and a well containing only media was used as a control. Plates were incubated at 37° C., 5% CO2 for 72 h before adding 20 µL of the CellTiter Aqueous One Solution (Promega) to each well and incubated at 37° C., 5% CO2 for an additional 3-4 h. The absorbance was read at 490 nm in a spectrophotometer and the percentage of cell titer relative to DMSO-treated cells was calculated after correcting for background by subtracting the blank well's signal. IC50 values were calculated using the GraphPad Prism software.
# [1] = system: c-myc in Human AML MV4-11 cells; assay: Inhibition of cMYC expression (mRNA, real-time PCR) in MV4-11 cells; type: cell-based; details: 3 h treatment, cMYC mRNA by real-time PCR
# Protocol: MV4-11 cells (CRL-9591) were plated at a density of 2.5×10^4 cells per well in 96 well U-bottom plates and treated with increasing concentrations of test compound or DMSO (0.1%) in IMDM media containing 10% FBS and penicillin/streptomycin, and incubated for 3 h at 37′C. Triplicate wells were used for each concentration. Cells were pelleted by centrifugation and harvested using the mRNA Catcher PLUS kit according to manufacturer's instructions. The eluted mRNA isolated was then used in a one-step quantitative real-time PCR reaction, using components of the RNA UltraSense™ One-Step Kit (Life Technologies) together with Applied Biosystems TaqMan® primer-probes for cMYC and Cyclophilin. Real-time PCR plates were run on a ViiA™7 real time PCR machine (Applied Biosystems), data was analyzed, normalizing the Ct values for cMYC to an internal control, prior to determining the fold expression of each sample, relative to the control.
# [2] = target: Brd4 bromodomain 1 (BRD4(1)) (Homo sapiens, UniProt O60885); assay: Inhibition of tetra-acetylated histone H4 binding to Brd4 bromodomain 1, measured by FRET (HTRF); parameters: made in house; host or cells: E. coli BL21(DE3); details: 2 h at room temperature
# Protocol: Proteins were cloned and overexpressed with a N-terminal 6×His tag, then purified by nickel affinity followed by size exclusion chromatography. Briefly, E. coli BL21(DE3) cells were transformed with a recombinant expression vector encoding N-terminally Nickel affinity tagged bromodomains from Brd2, Brd3, Brd4. Cell cultures were incubated at 37° C. with shaking to the appropriate density and induced overnight with IPTG. The supernatant of lysed cells was loaded onto Ni-IDA column for purification. Eluted protein was pooled, concentrated and further purified by size exclusion chromatography. Fractions representing monomeric protein were pooled, concentrated, aliquoted, and frozen at −80° C. for use in subsequent experiments.
# Binding of tetra-acetylated histone H4 and BET bromodomains was confirmed by a Homogenous Time Resolved Fluorescence Resonance Energy Transfer (HTRF®) method. N-terminally His-tagged bromodomains (200 nM) and biotinylated tetra-acetylated histone H4 peptide (25-50 nM, Millipore) were incubated in the presence of Europium Cryptate-labeled streptavidin (Cisbio Cat. #610SAKLB) and XL665-labeled monoclonal anti-His antibody (Cisbio Cat. #61HISXLB) in a white 96 well microtiter plate (Greiner). For inhibition assays, serially diluted test compound was added to these reactions in a 0.2% final concentration of DMSO. Duplicate wells were used for each concentration tested. Final buffer concentrations were 30 mM HEPES pH 7.4, 30 mM NaCl, 0.3 mM CHAPS, 20 mM phosphate pH 7.0, 320 mM KF, 0.08% BSA. After a 2 h incubation at room temperature, fluorescence was measured at 665 and 620 nm with a SynergyH4 plate reader (Biotek). The binding inhibitory activity was shown by a decrease in 665 nm relative to 620 nm fluorescence. IC50 values were determined from a dose response curve.
SMILES,IC50 (Human AML MV-4-11 cells),IC50 [1],IC50 [2],Cell Proliferation activity (Human AML MV-4-11 cells)
"Cc1noc(C)c1-c1cc(-c2cnn(C)c2)c2nc[nH]c2c1 [Example Compound 29, 3,5-dimethyl-4-(4-(1-methyl-1H-pyrazol-4-yl)-1H-benzo[d]imidazol-6-yl)isoxazole]",3000 to 30000 nM,300 to 3000 nM,≤ 300 nM,–
"Cc1noc(C)c1CNc1cc(-c2c(C)noc2C)cc2[nH]cnc12 [Example Compound 39, 6-(3,5-dimethyl-isoxazol-4-yl)-N-((3,5-dimethyl-isoxazol-4-yl)methyl)-1H-benzo[d] imidazol-4-amine]",300 to 3000 nM,300 to 3000 nM,≤ 300 nM,–
"Cc1noc(C)c1-c1cc(Nc2ccc(Cl)cc2)c2nc[nH]c2c1 [Example Compound 40, N-(4-chlorophenyl)-6-(3,5-dimethyl-isoxazol-4-yl)-1H-benzo[d] imidazol-4-amine]",3000 to 30000 nM,–,≤ 300 nM,–
"Cc1noc(C)c1-c1cc(NCc2ccccn2)c2nc[nH]c2c1 [Example Compound 47, 6-(3,5-dimethyl-isoxazol-4-yl)-N-(pyridin-2-ylmethyl)-1H-benzo[d] imidazol-4-amine]",300 to 3000 nM,300 to 3000 nM,≤ 300 nM,–
"Cc1noc(C)c1-c1cc(-c2ccc[nH]c2=O)c2nc[nH]c2c1 [Example Compound 56, 3-(6-(3,5-dimethyl-isoxazol-4-yl)-1H-benzo[d]imidazol-4-yl)pyridin-2(1H)-one]",–,–,300 to 3000 nM,Not active
"Cc1noc(C)c1-c1cc(-c2c(C)noc2C)c2nn[nH]c2c1 [Example Compound 95, 4,4′-(1H-benzo[d][1,2,3]triazole-4,6-diyl)bis(3,5-dimethylisoxazole)]",–,–,300 to 3000 nM,Not active
"CCNc1nc2c(-c3cccnc3C)cc(-c3c(C)noc3C)cc2[nH]1 [Example Compound 100, 6-(3,5-dimethylisoxazol-4-yl)-N-ethyl-4-(2-methylpyridin-3-yl)-1H-benzo[d]imidazol-2-amine]",300 to 3000 nM,≤ 300 nM,≤ 300 nM,–
"Cc1nc2c(-c3ccc4c(c3)OCO4)cc(-c3c(C)noc3C)cc2[nH]1 [Example Compound 103, 4-(4-(benzo[d] [1,3]dioxol-5-yl)-2-methyl-1H-benzo[d]imidazol-6-yl)-3,5-dimethyl isoxazole]",300 to 3000 nM,300 to 3000 nM,≤ 300 nM,–
"Cc1nc2c(-c3cncc(F)c3C)cc(-c3c(C)noc3C)cc2[nH]1 [Example Compound 125, 4-(4-(5-fluoro-4-methyl-pyridin-3-yl)-2-methyl-1H-benzo[d]imidazol-6-yl)-3,5-dimethyl isoxazole]",300 to 3000 nM,300 to 3000 nM,≤ 300 nM,–
"Cc1nc2c(-c3cccc(C(N)=O)c3C)cc(-c3c(C)noc3C)cc2[nH]1 [Example Compound 126, 3-(6-(3,5-dimethylisoxazol-4-yl)-2-methyl-1H-benzo[d]imidazol-4-yl)-2-methylbenzamide]",300 to 3000 nM,≤ 300 nM,≤ 300 nM,–
"Cc1noc(C)c1-c1cc(-c2c(C)nn(C)c2C)c2nc(N3CCOCC3)[nH]c2c1 [Example Compound 184, 4-(6-(3,5-dimethyl-isoxazol-4-yl)-4-(1,3,5-trimethyl-1H-pyrazol-4-yl)-1H-benzo[d]imidazol-2-yl)morpholine]",≤ 300 nM,≤ 300 nM,≤ 300 nM,–
"Cc1noc(C)c1-c1cc(-c2c(C)nn(C)c2C)c2nc(NC3CCN(C)CC3)[nH]c2c1 [Example Compound 185, 6-(3,5-dimethyl-isoxazol-4-yl)-N-(1-methyl-piperidin-4-yl)-4-(1,3,5-trimethyl-1H-pyrazol-4-yl)-1H-benzo[d] imidazol-2-amine]",300 to 3000 nM,300 to 3000 nM,≤ 300 nM,–
"CSc1nc2c(-c3c(C)nn(C)c3C)cc(-c3c(C)noc3C)cc2[nH]1 [Example Compound 187, 3,5-dimethyl-4-(2-(methylthio)-4-(1,3,5-trimethyl-1H-pyrazol-4-yl)-1H-benzo[d]imidazol-6-yl)isoxazole]",≤ 300 nM,≤ 300 nM,≤ 300 nM,–
"CSc1nc2c(-c3c(C)nn(C)c3C)cc(-c3c(C)noc3C)cc2n1C [Example Compound 188, 3,5-dimethyl-4-(1-methyl-2-(methylthio)-4-(1,3,5-trimethyl-1H-pyrazol-4-yl)-1H-benzo[d]imidazol-6-yl)isoxazole]",300 to 3000 nM,300 to 3000 nM,300 to 3000 nM,–
"Cc1noc(C)c1-c1cc(-c2c(C)nn(C)c2C)c2nc(NC3CCOCC3)[nH]c2c1 [Example Compound 190, 6-(3,5-dimethyl-isoxazol-4-yl)-N-(tetrahydro-2H-pyran-4-yl)-4-(1,3,5-trimethyl-1H-pyrazol-4-yl)-1H-benzo[d] imidazol-2-amine]",≤ 300 nM,300 to 3000 nM,≤ 300 nM,–
"Cc1ccc(C(N)=O)cc1-c1cc(-c2c(C)noc2C)cc2[nH]c(N3CCOCC3)nc12 [Example Compound 197, 3-(6-(3,5-dimethyl-isoxazol-4-yl)-2-morpholino-1H-benzo[d]imidazol-4-yl)-4-methyl benzamide]",300 to 3000 nM,300 to 3000 nM,≤ 300 nM,–
"Cc1ccc(C#N)cc1-c1cc(-c2c(C)noc2C)cc2[nH]c(NC3CCOCC3)nc12 [Example Compound 198, 3-(6-(3,5-dimethyl-isoxazol-4-yl)-2-((tetrahydro-2H-pyran-4-yl)amino)-1H-benzo[d]imidazol-4-yl)-4-methyl benzonitrile]",≤ 300 nM,≤ 300 nM,≤ 300 nM,–
"Cc1ccc(C(N)=O)cc1-c1cc(-c2c(C)noc2C)cc2[nH]c(NC3CCOCC3)nc12 [Example Compound 200, 3-(6-(3,5-dimethyl-isoxazol-4-yl)-2-((tetrahydro-2H-pyran-4-yl)amino)-1H-benzo[d]imidazol-4-yl)-4-methyl benzamide]",≤ 300 nM,≤ 300 nM,≤ 300 nM,–
"Cc1ccc(C(N)=O)cc1-c1cc(-c2c(C)noc2C)cc2[nH]c(NCc3cccnc3)nc12 [Example Compound 219, 3-(6-(3,5-dimethyl-isoxazol-4-yl)-2-((pyridin-3-ylmethyl)amino)-1H-benzo[d]imidazol-4-yl)-4-methyl-benzamide]",–,–,≤ 300 nM,–
"Cc1ccc(C(N)=O)cc1-c1cc(-c2c(C)noc2C)cc2[nH]c(NCc3ccccc3)nc12 [Example Compound 220, 3-(2-(benzyl-amino)-6-(3,5-dimethylisoxazol-4-yl)-1H-benzo[d]imidazol-4-yl)-4-methyl-benzamide]",–,–,≤ 300 nM,–
"Cc1noc(C)c1-c1cc(-c2c(C)nn(C)c2C)c2nc(NCc3cccnc3)[nH]c2c1 [Example Compound 221, 6-(3,5-dimethyl-isoxazol-4-yl)-N-(pyridin-3-ylmethyl)-4-(1,3,5-trimethyl-1H-pyrazol-4-yl)-1H-benzo[d] imidazol-2-amine]",–,–,≤ 300 nM,–
"Cc1noc(C)c1-c1cc(-c2c(C)noc2C)c2nc(NC3CCN(C)CC3)[nH]c2c1 [Example Compound 232, 4,6-bis(3,5-dimethyl-isoxazol-4-yl)-N-(1-methyl-piperidin-4-yl)-1H-benzo[d] imidazol-2-amine]",300 to 3000 nM,–,≤ 300 nM,–
